{"source": "patent US10300092B2", "about": "“Bee bloom compositions, methods of extraction and uses thereof” (KANE, Penny Coleen, priority 2011, dated 2019)", "tested_on": "sensitized rat intestine", "experiment": "In vitro anaphylaxis: ovalbumin (antigen)-induced contractile response of sensitized rat intestine in organ bath", "assay_type": "cell-based", "conditions": "control peptide feG 10^−8 M", "experimental": "Data are expressed as the mean +/− standard error. The data were analyzed using Student's t test for paired samples. Significant differences were accepted if p <0.05. Outlier analysis was performed using a modified Z-score that uses the median of absolute deviation A Z-score with an absolute value of greater than 4.0 was labeled as a potential outlier, and the corresponding data value was excluded.\nMale Sprague Dawley rats (Charles River Laboratories, Montreal, QC) of initial weights of 150 g were maintained with lights on from 700 to 1900 h and given food and water ad libitum. The rats were sensitized to 1 mg ovalbumin (OA) using 50 ng of pertussis toxin (Sigma-Aldrich, St. Louis, Mo.) as an adjuvant.\nFive to eight weeks following sensitization, the terminal duodenum of the rats was excised and 1 cm sections were mounted in 25 ml organ baths, containing bicarbonate Krebs′ buffer, with 1.0 g of tension. The isometric force generated in response to OA and carbachol (CAR; (2-[(aminocaronyl)oxyl-N,N,N-trimethylethanaminium), a cholinergic agonist, (Sigma-Aldrich) was measured using a Grass Force Displacement Transducer FTO3 (Quincy, MA>. Data were recorded with PolyView software (Polybytes, Inc., Cedar Rapids, Iowa). The tissues were allowed to equilibrate for 30 min during which they were washed several times with buffer, and applied tension was adjusted.\nEight tissue segments were mounted in separate tissue baths, with one tissue segment serving to evaluate if the intestinal tissues elicit a contractile response to the antigen. […] In the absence of a contractile response to antigen the tissues were discarded, and another animal taken.\nOnce peak contractile responses were attained the tissues were washed three times, baseline re-established and peak contractile response to 10^−5M CAR obtained. The mucosa was then scraped from the tissue, and the mass of the muscle determined. Responses were determined as grams of force/mg wet tissue.\nContractile responses to OA and CAR were measured at peak contraction, and calculated as grams of force per gram wet tissue. Results are expressed in three formats: • i) the amplitude of the OA-induced contractile response (grams of force/mg wet tissue), • ii) the ratio of the Bee Bloom response to the OR response (Bee Bloom/OA) (i.e. animal matched control), • iii) the ratio of the OA and CAR-induced contractile responses (ONCAR) (i.e. tissue matched controls)."}
{"substance": "D-phenylalanine-D-glutamate-Glycine [control]", "values": [{"measurement": "inhibition of antigen-induced contractions (FIGS. 1 and 2)", "value": "significantly inhibited"}, {"measurement": "inhibition of antigen-induced contractions, ratio to OA response, animal matched control (FIG. 3)", "value": "significantly inhibited"}, {"measurement": "inhibition of the OA:CAR ratio, tissue matched controls (FIG. 4)", "value": "did not significantly inhibit"}, {"measurement": "inhibition of antigen-induced contractions", "setting": "stated as closely matched by Bee Bloom", "value": "~−40", "unit": "%"}]}
